{"source": "patent US20220354852A1", "about": "“TARGETING WNT SIGNALING FOR IMPROVED GLIOMA IMMUNOTHERAPY” (CITY OF HOPE, priority 2021, published 2022)", "key": {"[1]": {"test_system": "subcutaneous murine K-luc GBM tumors", "test": "NanoString mouse immune panel of subcutaneous K-luc tumors", "format": "in vivo", "settings": "50 mg/kg/day, compared with untreated controls on day 21", "excerpt": "FIG. 23. NanoString analysis of subcutaneous K-luc tumors using the mouse immune panel. 750 mRNA concentration measurements, measured in baseline cells first at day 0 and then in subcutaneously transplanted tumors in separate mice at day 7, 14, and 21 (n=2). Sample 507 is a tumor that was not treated with ICG-001, was harvested on day 21, and is a baseline for comparison for days 7, 14, and 21. The log10 fold-change in mRNA expression was considered between 507 and the other samples.\nAnimal studies. Syngeneic mice (C57BL/6) of 8-12 weeks of age were implanted with subcutaneous K-Luc tumors (n=8). 7 days after, when tumors became palpable and after confirmation of the tumor presence with BLU imaging, mice were implanted with Alzet minipumps with ICG001 (50 mg/kg/day). Pumps were continuously providing a daily dose of ICG-001. Tumor tissues were harvested on days 7, 14, 21 post pump implantation and tumors were prepared for IHC (paraffin sections) and Nanostring analysis.\nNanoString analysis of subcutaneous murine K-luc GBM tumors The ICG-001 and saline control treated tumors were harvested on days 7, 14, and 21. Freshly frozen K-luc tumors were used for RNA isolation and NanoString analysis to determine endogenous immune response upon treatment with ICG-001. […]"}, "[2]": {"test_system": "human patient-derived glioma (PBT017, PBT030, PBT135, PBT144, and PBT147)", "test": "ICG-001 single agent on human patient-derived glioma cell lines (growth kinetics, morphology)", "format": "cell-based", "protocol": "(§1) FIG. 2. Combinational strategy of CAR T cell-mediated tumor-antigen targeting with ICG-001 induced differentiation in glioma. […] (B) Cytotoxicity of HER2 CAR-T cells and tumor cells (1:5 ratio) was enhanced by ICG-001 at concentrations 1.25-5 μM. (C) Treatment of PBT138 patient glioma tumors with CAR T IL13Rα2+/−ICG-001.\n(§2) FIG. 11. (A, B) Growth kinetics of human PBT glioma lines (PBT017, PBT030, PBT135, PBT144, and PBT147) treated with ICG-001 (0-10 μM) for 7 days and (C) mouse glioma cells (GL261, GL261-IL13, and K-luc) treated with ICG-001 (0-10 μM) for 4 days. Red boxes indicate PBT030 and PBT147 cell lines used for Nanostring and proteomics analysis. Scale bars represent S.D. of triplicate samples. (D-F) Growth kinetics of PBT017 (2,500 cells/well) treated with or without HER2-CAR T cells (500 cells/well) and with or without ICG-001 (0-5 μM). The red line is CAR T cell treatment only and the bottom three lines are with ICG-001. Experiment was done in quadruplicate and error bars indicate S.D.\nPBT tumor cells lines are patient derived tumors dissociated and grown in DMEM/F12 medium, supplemented with heparin, hepes, glutamax and B27. EFG and FGF is added at the time of the culture as described previously (Brown et al. 2009). ICG-001 was kindly provided by another laboratory.\nIn vitro experiments. Co-culture assay of PBT cell lines grown as described above and seeded to 100,000 cells/2 ml in 6 well plates. ICG-001 is added to the cell culture in concentrations […] for 24-72 h, as described previously (Brown et al. 2013).\nICG-001 activity in vitro in human and mouse glioma cell lines. Initially, the effects of the specific CBP/β-catenin antagonist ICG-001 was tested in vitro as a single agent on human and mouse glioma cell lines (5 PBT human and 3 mouse glioma lines)."}, "[3]": {"test_system": "PBT017 and PBT106 derived lines that express high levels of the tumor antigen HER2", "test": "In vitro co-culture cytotoxicity assay, HER2-CAR T cells ± ICG-001", "format": "cell-based, human", "protocol": "as §1, §2\nFIG. 13 illustrates data resulting from the combination of ICG001 and CAR T cells toxicity in vitro using 2000 cells to start and 4 days (96-well Endpoint—cell count) according to certain embodiments.\nFIG. 14 illustrates data resulting from the Combination of ICG001 and CAR T cells toxicity in vitro using 1000 cells to start and 4 days (96-well Endpoint—cell count) according to certain embodiments.\nIt has also been observed that ICG-001-induced differentiation of PBT017 and PBT138 (data not shown).\nNext, the efficacy of a titrated dose of CAR T cells±ICG-001 to induce tumor cell killing in vitro was tested (FIG. 11D-F). The combination of HER2-engineered CAR T (HER2-CAR T) cells and IGC-001 was evaluated using in vitro co-culture assays."}, "[4]": {"test_system": "T cells derived from 3 donors", "test": "NanoString gene expression analysis of T cells treated with ICG-001", "format": "cell-based", "settings": "ICG-001 2.5 or 5 μM", "protocol": "FIG. 27. T cells treated with ICG001 2.5 and 5 μM for 24 or 72 h. (A) CAR Ts mock and HER2 from one donor and mock CARs derived from two additional donors were plated on 6-well format plates and treated with ICG001 at concentrations 0-5 μM for 24 or 72 h. Cells were collected from each well, counted, and viability was determined. (B, C) NanoString analysis of T cells treated with ICG-001 to determine concentration-dependent metabolic changes. […] (E) Correlation of differential gene expression in all T cell lines combined at concentration of 2.5 and 5 μM.\nAntagonism of WNT/CBP/β-catenin signaling effects CAR T cells. Wnt signaling plays critical roles in T cell development and commitment (Li et al. 2019). Thus, the combined data derived from all T cell lines used and compared with untreated controls was analyzed for each T cell line.\nHowever, at a higher concentration of ICG-001, a higher degree of differential gene expression was observed. […]"}}, "note": "Entries after “also recorded” stand apart in the source; their conditions may differ.", "data": [{"smiles": "O=C1[C@H](Cc2ccc(O)cc2)N2C(=O)CCN(C(=O)NCc3ccccc3)[C@H]2CN1Cc1cccc2ccccc12", "note": "[ICG-001]", "values": [{"measurement": "immune pathways (mRNA) in tumor versus untreated controls", "setting": "[1]", "result": "concentration dependent increase in immune pathways"}, {"measurement": "effect on cell growth (growth kinetics)", "setting": "[2]; ICG-001 0-10 μM, 7 days, PBT017, PBT030, PBT135, PBT144, PBT147", "result": "concentration dependent cytostatic effect"}, {"measurement": "differentiation and growth of PBT017 glioma cells", "setting": "[2]; ICG-001 0.75-10 μM, PBT017", "result": "differentiation and cell growth arrest"}, {"measurement": "morphological phenotype", "setting": "[2]; all glioma lines, demonstrated with PBT017.RFP", "result": "less proliferative and more differentiated phenotype"}, {"measurement": "cytotoxicity of HER2 CAR-T cells", "setting": "[3]; CAR-T cells and tumor cells 1:5 ratio, ICG-001 1.25-5 μM", "result": "enhanced"}, {"measurement": "tumor cell killing at given effector: target cell ratios", "setting": "[3]; HER2-CAR T cells + ICG-001, effector: target cell ratios of 1:5 and 1:10", "result": "Enhanced killing"}, {"measurement": "tumor cell killing, ICG-001 in combination with HER2-CAR T cells", "setting": "[3]; PBT017 (and PBT106) lines, ICG-001 0-5 μM", "result": "synergistic cytotoxicity; also recorded: synergistic killing"}, {"measurement": "killing by CAR T cells of ICG-001-treated tumor cells", "setting": "[3]; Tumor[PBT106.eGFP]: CAR T [Her2] cells in ratios (1:2; 1:2, 1:4)", "result": "improved killing by CAR T cells"}, {"measurement": "T cell differentiation", "setting": "[4]", "result": "directed T cell differentiation into multiple types of effector and memory T cells"}, {"measurement": "expression of DPP4, CD48, CEBPB, B2M, ICOSLG, CD81, CXCR4, XBP1, NFIL3, and others in T cells", "setting": "[4]; 24 or 72 h", "result": "upregulation of key genes"}]}]}
